Measurements taken from patent US20240209028A1, “CNP COMPOUNDS” (priority 2022, published 2024).
Starred links: 1 amine or outer side, 2 acyl side, 3 side chain; linkers in the order of their positions; H or OH if unused. Positions of bridges follow the written chain, without caps; N, C: chain ends. Residues, ends and D or L forms follow the SMILES beside them. *: point of attachment. C18 diacid = O=C(O)CCCCCCCCCCCCCCCCC(=O)*; γGlu = O=C(O)[C@H](CCC(=O)[*:2])N[*:1]; AEEA = NCCOCCOCC(=O)O

Target: T1, human natriuretic peptide receptor 2 (hNPR2) (Homo sapiens, UniProt P20594)
T1 construct: expressed in transfected cells; host or cells: HEK293 (ATCC CRL-1573), clone 35, co-transfected with pGloSensor-42F
T1 sequence (P20594 23-1047): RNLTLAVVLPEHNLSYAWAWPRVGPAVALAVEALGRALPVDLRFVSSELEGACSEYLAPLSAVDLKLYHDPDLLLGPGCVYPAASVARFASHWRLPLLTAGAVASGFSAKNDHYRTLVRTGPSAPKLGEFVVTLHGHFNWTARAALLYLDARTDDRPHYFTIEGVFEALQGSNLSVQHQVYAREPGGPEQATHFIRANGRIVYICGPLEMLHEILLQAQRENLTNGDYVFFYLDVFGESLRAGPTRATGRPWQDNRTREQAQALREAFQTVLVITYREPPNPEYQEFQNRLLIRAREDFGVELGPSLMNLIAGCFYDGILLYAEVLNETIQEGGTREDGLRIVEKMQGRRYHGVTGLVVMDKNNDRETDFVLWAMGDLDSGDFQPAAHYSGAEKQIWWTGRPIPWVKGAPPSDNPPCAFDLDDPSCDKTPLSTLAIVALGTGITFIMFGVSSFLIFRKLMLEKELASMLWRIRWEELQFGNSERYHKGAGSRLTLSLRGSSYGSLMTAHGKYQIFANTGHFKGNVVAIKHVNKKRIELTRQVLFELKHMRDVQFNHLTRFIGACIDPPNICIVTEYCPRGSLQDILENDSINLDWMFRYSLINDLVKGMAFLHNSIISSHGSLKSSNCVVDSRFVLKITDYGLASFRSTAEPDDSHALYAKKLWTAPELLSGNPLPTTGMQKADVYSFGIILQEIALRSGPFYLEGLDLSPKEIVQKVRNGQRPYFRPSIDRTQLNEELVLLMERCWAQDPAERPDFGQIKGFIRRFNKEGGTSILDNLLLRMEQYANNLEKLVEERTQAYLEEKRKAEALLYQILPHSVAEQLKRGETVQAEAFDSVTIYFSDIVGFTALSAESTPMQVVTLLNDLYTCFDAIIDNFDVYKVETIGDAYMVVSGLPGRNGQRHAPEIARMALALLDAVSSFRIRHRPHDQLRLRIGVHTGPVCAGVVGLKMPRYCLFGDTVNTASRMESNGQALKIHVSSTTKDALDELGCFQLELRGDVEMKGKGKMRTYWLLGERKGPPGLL
Experiment: In vitro hNPR2 activity assay (cGMP GloSensor reporter, HEK293)
Format: cell-based
Conditions: for EC50: 0% HSA, HEK293-hNPR2/GloSensor cells; for hNPR2 0% HSA. [EC50% rel CNP]: potency relative to CNP22 (0065)
Method: To evaluate the in vitro activity of CNP22 (0065; Chem. 1) and CNP compounds of the invention, they were tested for their ability to induce production of cyclic guanosine monophosphate (cGMP) in reporter cells expressing the human natriuretic peptide receptor 2 (hNPR2).
Cell culture: To produce the reporter cell line, HEK293 (ATCC® CRL-1573™) cells were stably transfected with the pGloSensor-42F reporter plasmid (GloSensor cGMP reporter—luciferase, Promega) and an expression plasmid encoding the hNPR2 receptor. A single cell clone was isolated for the reporter cell line. When reporter cells are exposed to an hNPR2 activating compound, hNPR2 cause production of cGMP. […] Active GloSensor luciferase is able to convert luciferin to oxyluciferin, a process that produces bioluminescence. Upon cell lysis and supply of luciferase substrate, luciferase activity can be quantified by detection of luminescence. Therefore, addition of an hNPR2 activating compound and subsequent addition of detection reagent to reporter cells causes generation of luminescence in a dose dependent manner. […] This measure, also referred to as in vitro potency, is reported for all compounds tested. In all the in vitro activity experiments, CNP22 was used as a positive in-plate control for hNPR2 activation. To reduce inter-assay variation, we also report the potency of each compound relative to the potency of the CNP22 control on each plate.
Procedure: HEK293-hNPR2/GloSensor clone 35 cells were continuously cultured in selection medium (DMEM containing 10% FCS, 1% P/S, 200 μg/mL G418 and 100 μg/mL hygromycin). To perform the assay, cells were detached with TrypLE Express (Gibco #12604013), put through a 70 μm cell strainer, counted and seeded in 30 μL/well assay medium (DMEM without phenol red and with 1% P/S) at 10,000 cells/well in white 384-well plates (Perkin Elmer #6007680) overnight. The following day, test compounds were serial diluted in dilution medium (DMEM without phenol red containing 1% OVA (Sigma #A5505 lot 04M7001V), 0.01% Tween20 (Roche #33766700) and 1% P/S) and 10 μL/well of diluted test compounds were subsequently added to the cells. For each compound, ten different concentrations in the range 0.25 μM-10 μM were tested. After 30 min of incubation at 37° C. and 5% CO2, 40 μL/well Bright-Glo detection reagent (Promega #E2650) was added. […] To determine the in vitro potency or EC50 of each test compound, a four parameter logistic regression was done on the raw data for each test compound using the Python package SciPy optimize. The average EC50 values are listed as “hNPR2 0% HSA. [EC50 (nM)]” in Table 2. A relative potency was calculated by the following expression: EC50 (CNP22 in-plate control)/EC50 (test compound)*100, shown as “hNPR2 0% HSA. [EC50% rel CNP]” in Table 2. A minimum of two replicates was measured for each test compound.

Row | EC50 | hNPR2 0% HSA. [EC50% rel CNP] | Compound
1 | 5.62 nM | 4.1% | CC[C@H](C)[C@@H]1NC(=O)[C@H](CCCNC(=N)N)NC(=O)[C@H](CC(=O)O)NC(=O)[C@H](CC(C)C)NC(=O)[C@H](CCCCN)NC(=O)[C@H](CC(C)C)NC(=O)CNC(=O)[C@H](Cc2ccccc2)NC(=O)[C@@H](NC(=O)CNC(=O)[C@H](CCCCN)NC(=O)[C@H](CO)NC(=O)[C@H](CC(C)C)NC(=O)CNC(=O)[C@H](CCCCN)NC(=O)[C@H](CCC(=O)O)NC(=O)[C@H](CCC(N)=O)NC(=O)[C@H](C)NC(=O)CNC(=O)[C@H](CCC(N)=O)NC(=O)[C@H](CCC(=O)O)NC(=O)COCCOCCNC(=O)COCCOCCNC(=O)CC[C@H](NC(=O)CCCCCCCCCCCCCCCCC(=O)O)C(=O)O)CSSC[C@@H](C(=O)O)NC(=O)CNC(=O)[C@H](CC(C)C)NC(=O)CNC(=O)[C@H](CO)NC(=O)[C@H](CC(C)C)NC(=O)[C@H](CO)NC(=O)CNC1=O [compound 1231] ({C18 diacid-γGlu-AEEA-AEEA}-EQGAQEKGLSKGCFGLKLDRIGSLSGLGC-OH; disulfide 13-29)
2 | 1.63 nM | 16.0% | CC[C@H](C)[C@@H]1NC(=O)[C@H](CCCNC(=N)N)NC(=O)[C@H](CC(=O)O)NC(=O)[C@H](CC(C)C)NC(=O)[C@H](CCCCN)NC(=O)[C@H](CC(C)C)NC(=O)CNC(=O)[C@H](Cc2ccccc2)NC(=O)[C@@H](NC(=O)CNC(=O)[C@H](CCCCN)NC(=O)[C@H](CO)NC(=O)[C@H](CC(C)C)NC(=O)CNC(=O)[C@H](CCCCN)NC(=O)[C@H](CCC(=O)O)NC(=O)[C@H](CCC(N)=O)NC(=O)[C@H](C)NC(=O)CNC(=O)[C@H](CCCCN)NC(=O)[C@H](Cc2ccc(O)cc2)NC(=O)COCCOCCNC(=O)COCCOCCNC(=O)CC[C@H](NC(=O)CCCCCCCCCCCCCCCCC(=O)O)C(=O)O)CSSC[C@@H](C(=O)O)NC(=O)CNC(=O)[C@H](CC(C)C)NC(=O)CNC(=O)[C@H](CO)NC(=O)[C@H](CC(C)C)NC(=O)[C@H](CO)NC(=O)CNC1=O [compound 1232] ({C18 diacid-γGlu-AEEA-AEEA}-YKGAQEKGLSKGCFGLKLDRIGSLSGLGC-OH; disulfide 13-29; C-terminus assumed)
3 | 3.4 nM | 6.1% | CC[C@H](C)[C@@H]1NC(=O)[C@H](CCCNC(=N)N)NC(=O)[C@H](CC(=O)O)NC(=O)[C@H](CC(C)C)NC(=O)[C@H](CCCCN)NC(=O)[C@H](CC(C)C)NC(=O)CNC(=O)[C@H](Cc2ccccc2)NC(=O)[C@@H](NC(=O)CNC(=O)[C@H](CCCCN)NC(=O)[C@H](CO)NC(=O)[C@H](CC(C)C)NC(=O)CNC(=O)[C@H](CCCCN)NC(=O)[C@H](CCC(=O)O)NC(=O)[C@H](CCC(N)=O)NC(=O)[C@H](C)NC(=O)CNC(=O)[C@H](Cc2c[nH]cn2)NC(=O)[C@H](CCC(=O)O)NC(=O)COCCOCCNC(=O)COCCOCCNC(=O)CC[C@H](NC(=O)CCCCCCCCCCCCCCCCC(=O)O)C(=O)O)CSSC[C@@H](C(=O)O)NC(=O)CNC(=O)[C@H](CC(C)C)NC(=O)CNC(=O)[C@H](CO)NC(=O)[C@H](CC(C)C)NC(=O)[C@H](CO)NC(=O)CNC1=O [compound 1236] ({C18 diacid-γGlu-AEEA-AEEA}-EHGAQEKGLSKGCFGLKLDRIGSLSGLGC-OH; disulfide 13-29; C-terminus assumed)
4 | 1.95 nM | 11.8% | CC[C@H](C)[C@@H]1NC(=O)[C@H](CCCNC(=N)N)NC(=O)[C@H](CC(=O)O)NC(=O)[C@H](CC(C)C)NC(=O)[C@H](CCCCN)NC(=O)[C@H](CC(C)C)NC(=O)CNC(=O)[C@H](Cc2ccccc2)NC(=O)[C@@H](NC(=O)CNC(=O)[C@H](CCCCN)NC(=O)[C@H](CO)NC(=O)[C@H](CC(C)C)NC(=O)CNC(=O)[C@H](CCCCN)NC(=O)[C@H](CCC(=O)O)NC(=O)[C@H](CCC(N)=O)NC(=O)[C@H](C)NC(=O)CNC(=O)[C@H](Cc2c[nH]cn2)NC(=O)[C@H](Cc2ccc(O)cc2)NC(=O)COCCOCCNC(=O)COCCOCCNC(=O)CC[C@H](NC(=O)CCCCCCCCCCCCCCCCC(=O)O)C(=O)O)CSSC[C@@H](C(=O)O)NC(=O)CNC(=O)[C@H](CC(C)C)NC(=O)CNC(=O)[C@H](CO)NC(=O)[C@H](CC(C)C)NC(=O)[C@H](CO)NC(=O)CNC1=O [compound 1237] ({C18 diacid-γGlu-AEEA-AEEA}-YHGAQEKGLSKGCFGLKLDRIGSLSGLGC-OH; disulfide 13-29)

Row | Compound | EC50 | hNPR2 0% HSA. [EC50% rel CNP]
5 | CC[C@H](C)[C@@H]1NC(=O)[C@H](CCCNC(=N)N)NC(=O)[C@H](CC(=O)O)NC(=O)[C@H](CC(C)C)NC(=O)[C@@H]2CCCN2C(=O)[C@H](CC(C)C)NC(=O)CNC(=O)[C@H](Cc2ccccc2)NC(=O)[C@@H](NC(=O)CNC(=O)[C@H](CCCCN)NC(=O)[C@H](CO)NC(=O)[C@H](CC(C)C)NC(=O)CNC(=O)[C@H](CCCCN)NC(=O)[C@H](CCC(=O)O)NC(=O)[C@H](CCC(N)=O)NC(=O)[C@H](C)NC(=O)CNC(=O)[C@H](Cc2c[nH]cn2)NC(=O)[C@H](Cc2ccc(O)cc2)NC(=O)COCCOCCNC(=O)COCCOCCNC(=O)CC[C@H](NC(=O)CCCCCCCCCCCCCCCCC(=O)O)C(=O)O)CSSC[C@@H](C(=O)O)NC(=O)CNC(=O)[C@H](CC(C)C)NC(=O)CNC(=O)[C@H](CO)NC(=O)[C@H](CC(C)C)NC(=O)[C@H](CO)NC(=O)CNC1=O [compound 1240] ({C18 diacid-γGlu-AEEA-AEEA}-YHGAQEKGLSKGCFGLPLDRIGSLSGLGC-OH; disulfide 13-29; C-terminus assumed) | – | 11.2%
6 | CC[C@H](C)[C@@H]1NC(=O)[C@H](CCCNC(=N)N)NC(=O)[C@H](CC(=O)O)NC(=O)[C@H](CC(C)C)NC(=O)[C@@H]2CCCN2C(=O)[C@H](CC(C)C)NC(=O)CNC(=O)[C@H](Cc2ccccc2)NC(=O)[C@@H](NC(=O)CNC(=O)[C@H](CO)NC(=O)[C@H](CO)NC(=O)[C@H](CC(C)C)NC(=O)CNC(=O)[C@H](CCCCN)NC(=O)[C@H](CCC(=O)O)NC(=O)[C@H](CCC(N)=O)NC(=O)[C@H](C)NC(=O)CNC(=O)[C@H](Cc2c[nH]cn2)NC(=O)[C@H](Cc2ccc(O)cc2)NC(=O)COCCOCCNC(=O)COCCOCCNC(=O)CC[C@H](NC(=O)CCCCCCCCCCCCCCCCC(=O)O)C(=O)O)CSSC[C@@H](C(=O)O)NC(=O)CNC(=O)[C@H](CC(C)C)NC(=O)CNC(=O)[C@H](CO)NC(=O)[C@H](CC(C)C)NC(=O)[C@H](CO)NC(=O)CNC1=O [compound 1242] ({C18 diacid-γGlu-AEEA-AEEA}-YHGAQEKGLSSGCFGLPLDRIGSLSGLGC-OH; disulfide 13-29) | – | 5.4%
